Measurements published in the supplement of paper PMC9938120.

Experiments:
Test in all cases: drug sensitivity score (DSS3, normalised partial AUC of % inhibition dose-response) (DSS (score)); higher = more sensitive (stronger inhibition of viability); extreme values may be limits of the assay
Details in all cases: 72 h; library: FO5A; assay format: 2D, 384-well, CellTiter-Glo
FMOC06 = tested on: FMOC06 (patient-derived mucinous ovarian cancer cells)
Procedure, shortened: (§1)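 Cells were dispensed onto 384-well flat clear-bottom plates already holding compounds at five concentrations over a 10,000-fold range, using patient-derived ovarian cancer cells at passage under 10. Incubation lasted 72 h at 37 °C in 5% CO2, after which CellTiter-Glo viability data were processed in Breeze. Higher drug sensitivity scores, each a partial area under the percent-inhibition dose-response curve divided by the log of the upper asymptote, mean more sensitive cells.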

FMOC27 = tested on: FMOC27 (patient-derived low-grade serous ovarian cancer cells)
Procedure, shortened: as §1

FMOC02_1 = tested on: FMOC02_1 (patient-derived low-grade serous ovarian cancer cells)
Procedure, shortened: as §1

FMOC25_2 = tested on: FMOC25_2 (patient-derived low-grade serous ovarian cancer cells)
Procedure, shortened: as §1

FMOC11 = tested on: FMOC11 (patient-derived high-grade serous ovarian cancer cells)
Procedure, shortened: as §1

FMOC17 = tested on: FMOC17 (patient-derived low-grade serous ovarian cancer cells)
Procedure, shortened: as §1

FMOC09 = tested on: FMOC09 (patient-derived high-grade serous ovarian cancer cells)
Procedure, shortened: as §1

FMOC02_2 = tested on: FMOC02_2 (patient-derived low-grade serous ovarian cancer cells)
Procedure, shortened: as §1

FMOC04 = tested on: FMOC04 (patient-derived high-grade serous ovarian cancer cells)
Procedure, shortened: as §1

FMOC28 = tested on: FMOC28 (patient-derived low-grade serous ovarian cancer cells)
Procedure, shortened: as §1

FMOC24 = tested on: FMOC24 (patient-derived high-grade serous ovarian cancer cells)
Procedure, shortened: as §1

FMOC14 = tested on: FMOC14 (patient-derived high-grade serous ovarian cancer cells)
Procedure, shortened: as §1

FMOC02_3 = tested on: FMOC02_3 (patient-derived low-grade serous ovarian cancer cells)
Procedure, shortened: as §1

FMOC03 = tested on: FMOC03 (patient-derived mucinous ovarian cancer cells)
Procedure, shortened: as §1

FMOC22 = tested on: FMOC22 (patient-derived mucinous ovarian cancer cells)
Procedure, shortened: as §1

| Compound | drug sensitivity score (FMOC06) | drug sensitivity score (FMOC27) | drug sensitivity score (FMOC02_1) | drug sensitivity score (FMOC25_2) | drug sensitivity score (FMOC11) | drug sensitivity score (FMOC17) | drug sensitivity score (FMOC09) | drug sensitivity score (FMOC02_2) | drug sensitivity score (FMOC04) | drug sensitivity score (FMOC28) | drug sensitivity score (FMOC24) | drug sensitivity score (FMOC14) | drug sensitivity score (FMOC02_3) | drug sensitivity score (FMOC03) | drug sensitivity score (FMOC22) |
| --- | --- | --- | --- | --- | --- | --- | --- | --- | --- | --- | --- | --- | --- | --- | --- |
| COc1cc(N2CCC(N3CCN(C)CC3)CC2)ccc1Nc1ncc(Cl)c(Nc2ccccc2P(C)(C)=O)n1 [Brigatinib] | 4.7 | 1.7 | 4.4 | 6.4 | 1 | 2.9 | 3.8 | 4.3 | 1.75 | 4.8 | 2.8 | 1.7 | 3.7 | 0.9 | 0.5 |
| CNC(=O)c1ccc(-c2cnc3ncc(Cc4ccc5ncccc5c4)n3n2)cc1F [Capmatinib] | 0 | 0.5 | 0 | 0 | 0 | 0 | 0 | 0 | 0 | 0 | 0 | 0.1 | 0 | 0 | 0 |
| O=C(CCNC(=O)c1ccc(OC(F)(F)F)cc1)N[C@@H]1CCCc2ccccc21 [ML390] | 0.3 | 3.4 | 5.3 | 6 | 3.6 | 2 | 0 | 3 | 2.9 | 2.2 | 0.8 | 0 | 4.2 | 4.6 | 4.8 |
| C[C@H]1C[C@@H](n2c(Nc3ccc(OC(F)(F)F)cc3)nc3cc(CCC(=O)O)ccc32)CC(C)(C)C1 | 0 | 0 | 0 | 0 | 0.6 | 0 | 0 | 0 | 0 | 0 | 4.1 | 0 | 0.3 | 0 | 1.1 |
| COc1cc(OC)cc(N(CCNC(C)C)c2ccc3ncc(-c4cnn(C)c4)nc3c2)c1 [Erdafitinib] | 0 | 0 | 0 | 0.4 | 0.7 | 0.3 | 0 | 0 | 0 | 0 | 1.1 | 0 | 2.1 | 0 | 0 |
| CCc1nc(C(N)=O)c(Nc2ccc(N3CCC(N4CCN(C)CC4)CC3)c(OC)c2)nc1NC1CCOCC1 [Gilteritinib] | 4.5 | 0 | 4.2 | 4.4 | 1.9 | 1.7 | 1.7 | 3.2 | 1.1 | 0.5 | 0.1 | 0 | 4.5 | 0.1 | 0.1 |
| Cc1ccc(=O)n(-c2ccccc2)c1 [Pirfenidone] | 0 | 0 | 0 | 0 | 0.1 | 0.6 | 0 | 0 | 0 | 0 | 0 | 0 | 0 | 0 | 0 |
| Cc1nc(C(=O)NCC(=O)O)c(O)c2ccc(Oc3ccccc3)cc12 [Roxadustat] | 0 | 0.2 | 0 | 0 | 0 | 0 | 0 | 0 | 0 | 0 | 3.3 | 0 | 0 | 0 | 0 |
| CC(C)Oc1ccc(-c2nn([C@@H](C)c3oc4ccc(F)cc4c(=O)c3-c3cccc(F)c3)c3ncnc(N)c23)cc1F [TGR-1202] | 0.3 | 0.1 | 1.6 | 0.1 | 0 | 3.5 | 0 | 1.1 | 0.05 | 4.6 | 0.2 | 1.7 | 2 | 0 | 0 |
| Cc1nc2cccc(N)c2c(=O)n1C1CCC(=O)NC1=O (stereo not given) [CC122] | 0 | 0.1 | 0 | 0 | 0 | 0.5 | 0 | 0 | 0 | 2.5 | 0 | 0.2 | 0.4 | 0 | 0 |
| O=C1Cc2cc(C(=O)NC3C[C@H]4CC[C@@H](C3)N4S(=O)(=O)CC3CCN(CCCC(F)(F)F)CC3)c(Cl)cc2N1 (stereo not given in full) | 2.3 | 0 | 0 | 0 | 0 | 0 | 0 | 0 | 0 | 0.2 | 0 | 0 | 0 | 0 | 0 |
| CC#CC(=O)N1CC[C@@H](n2c(=O)n(-c3ccc(Oc4ccccc4)cc3)c3c(N)ncnc32)C1 [Tirabrutinib] | 0 | 1.1 | 3.9 | 3.5 | 1.6 | 2.6 | 0 | 3.9 | 0 | 0 | 0 | 0 | 3.5 | 1.8 | 0 |
| C=CC(=O)Nc1cccc(Oc2nc(Nc3ccc(N4CCN(C)CC4)cc3)nc3ccsc23)c1 [Olmutinib] | 0.2 | 2.4 | 2.3 | 1.5 | 0.4 | 2.6 | 3.5 | 2.1 | 0.05 | 1.7 | 0 | 0 | 2.3 | 0.8 | 0 |
| CCCCOc1nc(N)c2c(n1)N(Cc1cccc(CN3CCCC3)c1)CC(=O)N2 [Vesatolimod] | 0 | 0 | 0 | 0.1 | 0 | 0 | 0.2 | 0 | 0 | 0 | 0 | 0 | 0 | 0 | 0 |
| CCOCc1nc2c(N)nc3ccccc3c2n1CC(C)(C)O [Resiquimod] | 0.6 | 0 | 0 | 0 | 0 | 0 | 0.2 | 0 | 0 | 0 | 1.5 | 0 | 0 | 0 | 0 |
| CCOC(=O)C1=CCCC[C@H]1S(=O)(=O)Nc1ccc(F)cc1Cl [Resatorvid] | 0.1 | 0 | 0 | 0 | 0 | 0 | 0 | 0 | 0 | 0 | 0 | 0 | 0 | 0 | 0 |
| Nc1cc(COc2c(Cl)cc(C[C@H](N)C(=O)O)cc2Cl)c2oc(-c3ccccc3)nc2c1 [JPH203] | 0.4 | 0 | 0 | 0 | 0 | 0 | 0 | 0 | 0 | 0 | 0 | 0 | 0 | 0 | 0 |
| Cc1ccc(C(=O)Nc2cccc(C(F)(F)F)c2)cc1Nc1nc(-c2cccnc2)nc2c1cnn2C [NVP-BHG712] | 7.3 | 1.6 | 6.2 | 0 | 4.7 | 4.6 | 3 | 3 | 0 | 4.8 | 7.9 | 3.3 | 3.3 | 5.2 | 3.4 |
| O=C(Nc1ccc(OC(F)(F)Cl)cc1)c1cnc(N2CC[C@@H](O)C2)c(-c2cc[nH]n2)c1 [Asciminib] | 1 | 0 | 0 | 0.1 | 0 | 0 | 0 | 1 | 0 | 0 | 0.9 | 0 | 0 | 0 | 0 |
| COc1cc(C)[nH]c(=O)c1CNC(=O)c1c(C)n([C@H](C)C2CCOCC2)c2ccccc12 [CPI-360] | 0 | 0 | 0 | 0 | 0 | 0 | 0 | 0.1 | 0.05 | 3.4 | 0 | 0 | 0 | 0 | 0 |
| Cc1c(-c2c(-c3ccc(F)o3)sc3ncnc(O[C@H](Cc4ccccc4OCc4ccnn4CC(F)(F)F)C(=O)O)c23)ccc(OCCN2CCN(C)CC2)c1Cl | 0 | 0 | 0 | 0 | 0 | 0 | 0 | 0 | 0.05 | 0 | 8 | 0 | 2.8 | 0 | 0 |
| CC[C@@H]1CN(C(=O)NCC(F)(F)F)C[C@@H]1c1cnc2cnc3[nH]ccc3n12 [Upadacitinib] | 1.3 | 0 | 0 | 0 | 0 | 0 | 0 | 0 | 0.1 | 2.1 | 1.2 | 0 | 0 | 0 | 0 |
| C[C@H](Nc1ncnc2[nH]cnc12)c1cc2ccc(F)cc2nc1-c1ccccn1 [AMG319] | 0 | 0 | 0 | 0 | 0 | 0.1 | 0 | 0.1 | 0 | 0 | 0.7 | 0 | 0 | 0 | 0 |
| O=C(NCc1ccncc1)C12CC3CC(C1)CC(c1ccc(Cl)cc1)(C3)C2 | 5.6 | 4.1 | 2.6 | 3.1 | 5.8 | 3.1 | 4.2 | 3.2 | 2 | 4.8 | 4.7 | 1.6 | 5.3 | 4.5 | 5.2 |
| CN(C(=O)c1ccc(F)cc1C(F)(F)F)C1CCN(c2nnc(-c3ccnn3C)c3ccccc23)CC1 [Taladegib] | 0 | 0 | 0 | 0 | 0 | 0 | 0 | 0 | 0 | 0 | 0 | 0 | 0 | 0 | 0 |
